Assay results: patent US20130143742A1, “HERBICIDAL COMPOSITION” (SUMITOMO CHEMICAL COMPANY, LIMITED, priority 2011, published 2013)
Structures can show the parent of a compound that is named as a salt.

Assays:
[1] = tested on: barnyardgrass (Echinochloa crus-galli); experiment: Example 4: herbicidal activity, soil treatment, weed sown 9 days after treatment; assay type: in vivo; settings: score 0 to 100; 1,000 g/ha; 29 days after the chemical treatment (20 days after sowing)
Procedure: (§1) Plastic pots each having a diameter of 24 cm and a height of 21 cm were filled with the soil. A water dilution of a glyphosate potassium salt (liquid formulation containing 48% of a glyphosate potassium salt, manufactured by Nissan Chemical Industries, Ltd. under the trade name of Roundup Maxload) was prepared. A mixed solution of a water dilution of a flumioxazin water dispersible granule (water dispersible granule containing 51% of flumioxazin, manufactured by Valent USA Corporation under the trade name of Valor SX) and a water dilution of a saflufenacil was prepared. A mixed solution of a water dilution of a glyphosate potassium salt, a water dilution of a flumioxazin water dispersible granule and a water dilution of Saflufenacil was prepared. Each of the solutions thus prepared above was uniformly sprayed over the pots using a sprayer in an amount of 500 L/ha. The water dilution of saflufenacil was prepared by dissolving a predetermined amount of saflufenacil in acetone containing 2% (w/v) of Tween 20 (surfactant, manufactured by Tokyo Chemical Industry Co., Ltd.) and diluting the solution with water so that the acetone concentration will be 10 volume %.
(§2) After a chemical treatment, the pots were put in a greenhouse. […]
Seedlings of the plant were cultivated in the greenhouse and, 29 days after the chemical treatment (20 days after sowing), herbicidal activity was evaluated.

[2] = tested on: ivyleaf morningglory (Ipomoea hederacea); experiment: Example 3: herbicidal activity, soil treatment, weed sown 21 days after treatment; assay type: in vivo; settings: score 0 to 100; 20 g/ha; 45 days after the chemical treatment (24 days after sowing)
Procedure: as §1, with “of saflufenacil” for “of a glyphosate potassium salt (liquid formulation containing 48% of a glyphosate potassium salt, manufactured by Nissan Chemical Industries, Ltd. under the trade name of Roundup Maxload)”, “a glyphosate potassium salt (liquid formulation containing 48% of a glyphosate potassium salt, manufactured by Nissan Chemical Industries, Ltd. under the trade name of Roundup Maxload)” for “a saflufenacil”, “of saflufenacil,” for “of a glyphosate potassium salt,”, “of a glyphosate potassium salt” for “of Saflufenacil”
as §2
Seedling of the plant were cultivated in the greenhouse and, […] after the chemical treatment (24 days after sowing), herbicidal activity was evaluated.

SMILES	Herbicidal activity Barnyardgrass [1]	Herbicidal activity Ivyleaf morningglory [2]
O=C(O)CNCP(=O)(O)O [Glyphosate potassium salt, glyphosate-potassium]	0	
CC(C)N(C)S(=O)(=O)NC(=O)c1cc(-n2c(=O)cc(C(F)(F)F)n(C)c2=O)c(F)cc1Cl [Saflufenacil, N′-{2-chloro-4-fluoro-5-[1,2,3,6-tetrahydro-3-methyl-2,6-dioxo-4-(trifluoromethyl)pyrimidin-1-yl]benzoyl}-N-isopropyl-N-methylsulfamide]		45
